Common to all, as to test: NCI anticancer screen, dose series, 48 h
Experiment [1] deals with 786-0 renal.
In experiment [2] the test system is IGROV1 ovarian.
The test system of experiment [3] is OVCAR-5 ovarian.
Experiment [4] relates to OVCAR-8 ovarian.
Experiment [5] relates to SF-539 CNS.
For experiment [6], the system named is SK-OV-3 ovarian.
Experiment [7] concerns UACC-257 melanoma.
The subject of experiment [8] is HS 578T breast.

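Test compounds were applied to cells in 96-well plates for 48 hours at 5 doses. GI50: concentration for 50% inhibition of growth. At the TGI there is no net growth.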 Where only a bound is given, the exact number is not on record here.

Regarding `O=C1/C(=C/c2ccccc2)CCc2ccc(Cl)nc21`, the TGI in experiment [1] was 21.8 µM; in experiment [2], 17.7 µM; in experiment [3] it was 33.4 µM; in experiment [4], greater than 100 µM; in experiment [5], 15.4 µM; in experiment [6], 73 µM. In experiment [7], this molecule gave a TGI of 20.4 µM.
Take `CN(CCc1ccc(Cl)c(Cl)c1)[C@H]1CCCC[C@H]1N1CCCC1`: the TGI in experiment [1], in experiment [8], in experiment [2], in experiment [3], in experiment [4] and in experiment [6] was greater than 100 µM each time. Also, in experiment [7], the TGI is greater than 100 µM.
As for `CCOC(=O)c1nc2c3c(ncn2n1)Oc1c(c(-c2ccccc2)nn1-c1ccccc1)C3c1ccc(Cl)cc1` (stereo unspecified), the TGI in experiment [1], in experiment [8], in experiment [3], in experiment [4], in experiment [5] and in experiment [6] was greater than 100 µM throughout. The molecule further showed a TGI in experiment [7] greater than 100 µM.
`N#Cc1c(NC(=O)c2ccccc2)sc2c1CCC(=O)C2`: the GI50 in experiment [8] was 1.92 µM; in experiment [2] it was 1.59 µM; in experiment [3], 1.25 µM; in experiment [4] it was 1.27 µM; in experiment [5], 0.78 µM; in experiment [6], 2.33 µM. The GI50 in experiment [7] was 1.59 µM. In addition, the TGI in experiment [8] turned out to be 7.32 µM; in experiment [2] it was 11 µM; in experiment [3] it was 4.77 µM; in experiment [4], 45 µM; in experiment [5] it was 2.59 µM; in experiment [6] it was 14.7 µM. Further, the TGI in experiment [7] was determined as 5.49 µM.
Take `COC(=O)c1sc(=S)sc1SCc1ccccc1CSc1sc(=S)sc1C(=O)OC`: the TGI in experiment [1], in experiment [8], in experiment [2], in experiment [3], in experiment [4] and in experiment [6] was greater than 100 µM throughout. The molecule also registered a TGI in experiment [7] greater than 100 µM.
Turning to `N#CCCC1C(C#N)C2CC1C1C3C=CC(C3)C21` (stereo unspecified), the TGI in experiment [1], in experiment [8], in experiment [2], in experiment [3], in experiment [4] and in experiment [6] was greater than 100 µM each time. Also, in experiment [7], the TGI is greater than 100 µM.
Take `OC(c1ccc(Cl)cc1)(c1ccc(Cl)cc1)C(O)(c1ccc(Cl)cc1)c1ccc(Cl)cc1`: in experiment [2], the GI50 was 1.97 µM and the TGI is greater than 100 µM.
For `COC(=O)[C@H](C)N1C(=O)N[C@@H](C(C)C)C1=O`, the TGI in experiment [1], in experiment [2], in experiment [3], in experiment [4], in experiment [5] and in experiment [6] was greater than 100 µM in each case. The molecule also registered a TGI in experiment [7] greater than 100 µM.
On to `CC1(C)COC(c2cccc(C3=NC(C)(C)CO3)c2Br)=N1`, for which the TGI in experiment [1], in experiment [2], in experiment [3], in experiment [4], in experiment [5] and in experiment [7] was greater than 100 µM each time.
`CCN(CC)CCO/N=C1\CC[C@H]2[C@@H]3CC=C4C[C@@H](O)CC[C@]4(C)[C@H]3CC[C@]12C`: the TGI in experiment [1] was 31.5 µM; in experiment [8] it was greater than 100 µM; in experiment [2], greater than 100 µM; in experiment [3] it was greater than 100 µM; in experiment [4], 64.6 µM; in experiment [5], 27.6 µM. Besides, the TGI in experiment [7] was determined as 30.4 µM.
Take `NC(N)=N/N=C/c1c(-c2ccc([N+](=O)[O-])cc2)nc2sccn12`: the TGI came to 3.07 µM in experiment [1]; 4.14 µM in experiment [8]; 36.4 µM in experiment [2]; 3.11 µM in experiment [3]; 3.34 µM in experiment [5]; 3.35 µM in experiment [6]. The TGI in experiment [7] turned out to be 3.65 µM.
Regarding `COc1ccc(C(O)c2ccc3c(c2)OCO3)cc1` (stereo unspecified), the TGI in experiment [1], in experiment [2], in experiment [3], in experiment [4], in experiment [5] and in experiment [6] was greater than 100 µM in each case. Further, the TGI in experiment [7] is greater than 100 µM.
Consider `CN(C)CCOC(=O)COc1ccc(Cl)cc1`, for which the TGI in experiment [1], in experiment [2], in experiment [3], in experiment [4], in experiment [5] and in experiment [6] was greater than 100 µM throughout. In experiment [7], this molecule came in with a TGI greater than 100 µM.
In the case of `CC(=O)NC1C(CO)O[C@@H]2OC(C)(C)O[C@H]12` (stereo partly specified), the TGI in experiment [1], in experiment [8], in experiment [2], in experiment [3], in experiment [4] and in experiment [5] was greater than 100 µM in each case. In experiment [7], this molecule had a TGI greater than 100 µM.
Regarding `CCOC(=O)c1ccc(C(=O)C(C(C)=O)C(=O)OC(C)(C)C)n1C` (stereo unspecified), the TGI in experiment [1], in experiment [8], in experiment [2], in experiment [3], in experiment [4] and in experiment [6] was greater than 100 µM throughout. Also, the TGI in experiment [7] was greater than 100 µM.
Regarding `Clc1nc(-[n+]2ccc(-c3ccncc3)cc2)nc(Nc2ccccc2)c1Cl`, the TGI in experiment [1], in experiment [8], in experiment [2], in experiment [3], in experiment [5] and in experiment [6] was greater than 100 µM in each case. Besides, in experiment [7], the TGI is greater than 100 µM.
`COc1cc2cc(C(=O)N3CC(CCl)c4c3cc(N)c3ccccc43)[nH]c2cc1OCCN(C)C` (stereo unspecified): the TGI came out at 0.125 µM in experiment [8]; 0.00522 µM in experiment [2]; 16.3 µM in experiment [3]; 0.0571 µM in experiment [4]; 0.881 µM in experiment [6]; 16.8 µM in experiment [7].
In the case of `COP(=O)(OC)C(N)CCSC` (stereo unspecified), the TGI in experiment [1], in experiment [8], in experiment [2], in experiment [3], in experiment [4] and in experiment [6] was greater than 100 µM each time. In experiment [7], this molecule returned a TGI greater than 100 µM.
